The source of these data is US11261201B2 (priority 2018, dated 2022).

Values after ≈ are worked out from the molar mass of the structure shown. Where a name gives a salt, the structure may show the parent alone. Read-outs that look alike come from different tables or passages of the source.

Test [1] deals with A. baumannii. The experiment in a line: Gram negative MIC protocol (OD600, LB, 24 h). Particulars: Acinetobacter baumannii.
Protocol: (§1) Overnight bacterial cultures were grown in LB with no added antibiotics at 37° C. with shaking. A 1:1000 dilution of these cultures into LB was exposed to concentration gradients of compounds in 96-well plates (100 μL per well assay volume). Resulting plates were incubated at 37° C. for 24 h without shaking, and OD600 was measured at the end of the incubation. MICs were determined as the lowest concentrations at which OD600 remained at baseline.
In test [2] the test system is E. coli. As to the kind of experiment: Gram negative MIC protocol (OD600, LB, 24 h). Particulars: Escherichia coli.
Protocol: as §1
Test [3] relates to H37RvMA. The experiment in a line: Tuberculosis Alamar Blue/Resazurin assay (MIC). In kind it is cell-based. As to conditions: Mycobacterium tuberculosis, H37RV, read-out: WT H37Rv MTB Activity.
The mark [4] stands for this setting: read-out: MIC A. baumannii LB Media, A. baumannii, LB media, 24 h, OD600.
Setting [5] is: read-out: MIC E. coli delta-TolC LB Media, E. coli delta-TolC, LB media, OD600.
Setting [6] is: read-out: MIC WT E. coli LB Media, WT E. coli, LB media, OD600.
Setting [7] is: read-out: MIC E. coli delta-TolC LB Media, E. coli delta-TolC strain, LB media, 24 h, OD600.
Where [8] appears, read: read-out: MIC WT E. coli LB Media, wild-type E. coli, LB media, 24 h, OD600.
The mark [9] stands for this setting: read-out: MIC A. baumannii LB Media.

Take `CC(C)=CCCNCc1ccccc1` [B51]: the MIC in test [1] (setting [4]), in test [2] (setting [5]), in test [2] (setting [6]) and in test [3] (WT H37Rv MTB) was more than 150 µM each time.

For the molecule `COc1cc2c(cc1OC)CN(CCNCc1ccccc1)CC2` [B147], the MIC in test [1] (setting [4]), in test [2] (setting [5]), in test [2] (setting [6]) and in test [3] (WT H37Rv MTB) was more than 150 µM in each case.

As for `CC1CCCC(Oc2ccccc2CNC(C)CC2CCCCC2)C1` (centres unmarked) [B391, 1-cyclohexyl-N-(2-((3-methylcyclohexyl)oxy)benzyl)propan-2-amine], the MIC in test [1] (setting [4]) was 91 µM (≈ 31.3 µg/mL); in test [2] (setting [7]), 3 µM (≈ 1.03 µg/mL); in test [2] (setting [8]) it was 150 µM (≈ 51.5 µg/mL); in test [3] (WT H37Rv MTB) it was 20.2 µM (≈ 6.94 µg/mL).

For `Ic1cccc(CNCCC2CCCCC2)c1` [B348], the MIC in test [1] (setting [4]) is more than 150 µM; in test [2] (setting [7]) it was more than 150 µM; in test [2] (setting [8]), more than 150 µM; in test [3] (WT H37Rv MTB), 150 µM (≈ 51.5 µg/mL).

As for `CC(CC1CCCCC1)NCc1ccccc1OCC(=O)N1CC(C)OC(C)C1` (centres unmarked) [B333], the MIC in test [1] (setting [4]) was more than 150 µM; in test [2] (setting [7]), 7 µM (≈ 2.82 µg/mL); in test [2] (setting [8]) it was more than 150 µM; in test [3] (WT H37Rv MTB), more than 150 µM.

Turning to `CC(O)CCOc1ccccc1CNC(C)CC1CCCCC1` (centres unmarked) [B363], the MIC in test [1] (setting [4]) is 150 µM (≈ 47.9 µg/mL); in test [2] (setting [7]) it was 3 µM (≈ 0.958 µg/mL); in test [2] (setting [8]), 150 µM (≈ 47.9 µg/mL); in test [3] (WT H37Rv MTB), more than 150 µM.

As to `COC(=O)C(CC1CCCCC1)NCc1ccccc1` (centres unmarked) [B203, methyl 2-(benzylamino)-3-cyclohexylpropanoate hydrochloride], the MIC in test [1] (setting [4]) is more than 300 µM; in test [2] (setting [7]), 170 µM; in test [2] (setting [8]), more than 300 µM; in test [3] (WT H37Rv MTB) it was more than 150 µM.

On to `c1ccc(OCC2CCOCC2)c(CNCCC2CCCCC2)c1` [B331, 2-cyclohexyl-N-(2-((tetrahydro-2H-pyran-4-yl)methoxy)benzyl)ethanamine], for which the MIC was more than 150 µM in test [1] (setting [4]), 33 µM (≈ 10.9 µg/mL) in test [2] (setting [7]), more than 150 µM in test [2] (setting [8]) and more than 150 µM in test [3] (WT H37Rv MTB).

`C[C@H](CC1=CCCCC1)NCc1ccccc1` [B170]: the MIC in test [1] (setting [9]) is more than 300 µM; in test [2] (setting [5]) it was more than 300 µM; in test [2] (setting [6]), more than 300 µM; in test [3] it was more than 150 µM.

For the molecule `O=C1CCC(CCNCc2ccccc2)CC1` [B218, 4-(2-(benzylamino)ethyl) cyclohexanone], the MIC in test [1] (setting [4]) is more than 300 µM; in test [2] (setting [7]), more than 300 µM; in test [2] (setting [8]), more than 300 µM; in test [3] (WT H37Rv MTB), more than 150 µM.

Take `C=CCOc1ccccc1CNC(C)CC1CCCCC1` (centres unmarked) [B289]: the MIC in test [1] (setting [4]) is 150 µM (≈ 43.1 µg/mL); in test [2] (setting [7]), 3 µM (≈ 0.862 µg/mL); in test [2] (setting [8]), 91 µM (≈ 26.2 µg/mL); in test [3] (WT H37Rv MTB), 150 µM (≈ 43.1 µg/mL).

Consider `COCC(C)NC(=O)NC(=O)COc1ccccc1CNC(C)CC1CCCCC1` (centres unmarked) [B308], for which the MIC in test [1] (setting [4]) is 150 µM (≈ 62.9 µg/mL); in test [2] (setting [7]), 4 µM (≈ 1.68 µg/mL); in test [2] (setting [8]), more than 150 µM; in test [3] (WT H37Rv MTB), more than 150 µM.

With `Oc1cccc(CNCCC2CCCCC2)c1` [B356], the MIC in test [1] (setting [4]), in test [2] (setting [7]), in test [2] (setting [8]) and in test [3] (WT H37Rv MTB) was more than 150 µM each time.

With `Nc1cccc(CNCCC2CCCCC2)c1` [B366], the MIC was more than 150 µM in test [1] (setting [4]), 150 µM (≈ 34.9 µg/mL) in test [2] (setting [7]), 150 µM (≈ 34.9 µg/mL) in test [2] (setting [8]) and more than 150 µM in test [3] (WT H37Rv MTB).

In the case of `CC(CC1CCCCC1)NCc1ccccc1CS(=O)(=O)N[C@@H](C)C(=O)O` (stereo partly drawn) [B454, ((2-(((1-cyclohexylpropan-2-yl)amino)methyl)benzyl)sulfonyl)-L-alanine], the MIC in test [1] (setting [4]) is more than 150 µM; in test [2] (setting [5]), 91 µM (≈ 36.1 µg/mL); in test [2] (setting [6]), more than 150 µM; in test [3] (WT H37Rv MTB), more than 150 µM.

On to `CC(Cc1ccccc1)NCc1ccccc1` (centres unmarked) [B8], for which the MIC in test [1] (setting [9]), in test [2] (setting [5]), in test [2] (setting [6]) and in test [3] was more than 150 µM throughout.

As for `CC1(CNCc2ccccc2)CCCCCC1` [B100], the MIC in test [1] (setting [4]), in test [2] (setting [5]), in test [2] (setting [6]) and in test [3] (WT H37Rv MTB) was more than 150 µM each time.

Turning to `CC(C)(CNCc1ccccc1)C1=CCCCC1` [B72], the MIC in test [1] (setting [4]), in test [2] (setting [5]), in test [2] (setting [6]) and in test [3] (WT H37Rv MTB) was more than 150 µM in each case.

`COCCCCOc1ccccc1CNC(C)CC1CCCCC1` (centres unmarked) [B277]: the MIC in test [1] (setting [4]) was more than 150 µM; in test [2] (setting [7]), 4 µM (≈ 1.33 µg/mL); in test [2] (setting [8]), more than 150 µM; in test [3] (WT H37Rv MTB), more than 150 µM.

As for `CC(CC1CCCCC1)NCc1ccccc1OC1CCCCC1C` (centres unmarked) [B389, 1-cyclohexyl-N-(2-((2-methylcyclohexyl)oxy)benzyl)propan-2-amine], the MIC is 91 µM (≈ 31.3 µg/mL) in test [1] (setting [4]), 3 µM (≈ 1.03 µg/mL) in test [2] (setting [7]), more than 150 µM in test [2] (setting [8]) and 33.4 µM (≈ 11.5 µg/mL) in test [3] (WT H37Rv MTB).
